Results published in PubChem BioAssay AID328 (DTP/NCI, 2004).
Where “and” joins values, the source holds several entries; their conditions need not be identical. Identical values can stand only once. Inconclusive results and toxic doses are left out.

Test system: BDF1 mice, P388 leukemia ip, median survival T/C
Assay: NCI In Vivo Anticancer Drug Screen. Data for tumor model P388 Leukemia (intraperitoneal) in B6D2F1 (BDF1) mice
Settings: endpoint: median survival time, higher = longer survival
How it was run: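 Antitumour effect was judged in vivo: survival in drug-treated mice, normalised to that of vehicle-dosed controls, gives the reported T/C.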

Question: What does the source list for `CC1=CC2C(O)(CC(CO)=CC3C4C(C)(C)C4(OC(=O)c4ccccc4)C(OC(=O)c4ccccc4)C(C)C32O)C1=O` (stereo unspecified)?
Answer: T/C (dose: 0.03 mg/kg/injection, schedule: Q01DX009 (ip), vehicle: Klucel (hydroxypropylcellulose) (HPC)): 95 % of control; T/C (dose: 0.03 mg/kg/injection, schedule: Q01DX009 (ip), vehicle: saline + alcohol): 93 % of control; T/C (dose: 0.06 mg/kg/injection, schedule: Q01DX009 (ip), vehicle: Klucel (hydroxypropylcellulose) (HPC)): 99 % of control; T/C (dose: 0.06 mg/kg/injection, schedule: Q01DX009 (ip), vehicle: saline + alcohol): 94 % of control; T/C (dose: 0.12 mg/kg/injection, schedule: Q01DX009 (ip), vehicle: Klucel (hydroxypropylcellulose) (HPC)): 99 % of control; T/C (dose: 0.12 mg/kg/injection, schedule: Q01DX009 (ip), vehicle: saline + alcohol): 112 % of control; T/C (dose: 0.25 mg/kg/injection, schedule: Q01DX009 (ip), vehicle: Klucel (hydroxypropylcellulose) (HPC)): 94 % of control; T/C (dose: 0.25 mg/kg/injection, schedule: Q01DX009 (ip), vehicle: saline + alcohol): 119 % of control; T/C (dose: 0.5 mg/kg/injection, schedule: Q01DX009 (ip), vehicle: Klucel (hydroxypropylcellulose) (HPC)): 89 % of control; T/C (dose: 0.5 mg/kg/injection, schedule: Q01DX009 (ip), vehicle: saline + alcohol): 119 % of control; T/C (dose: 1.0 mg/kg/injection, schedule: Q01DX009 (ip), vehicle: Klucel (hydroxypropylcellulose) (HPC)): 110 % of control; T/C (dose: 1.0 mg/kg/injection, schedule: Q01DX009 (ip), vehicle: saline + alcohol): 92 % of control; T/C (dose: 3.1 micrograms/kg/injection, schedule: Q01DX009 (ip), vehicle: gum acacia): 116 % of control; T/C (dose: 3.1 micrograms/kg/injection, schedule: Q01DX009 (ip), vehicle: saline + alcohol): 172 % of control; T/C (dose: 3.1 micrograms/kg/injection, schedule: Q01DX009 (ip), vehicle: saline with Tween-80): 88 % of control and 118 % of control; T/C (dose: 6.2 micrograms/kg/injection, schedule: Q01DX009 (ip), vehicle: gum acacia): 110 % of control; T/C (dose: 6.2 micrograms/kg/injection, schedule: Q01DX009 (ip), vehicle: saline + alcohol): 118 % of control; T/C (dose: 6.2 micrograms/kg/injection, schedule: Q01DX009 (ip), vehicle: saline with Tween-80): 119 % of control; T/C (dose: 12.5 micrograms/kg/injection, schedule: Q01DX009 (ip), vehicle: gum acacia): 107 % of control; T/C (dose: 12.5 micrograms/kg/injection, schedule: Q01DX009 (ip), vehicle: saline + alcohol): 110 % of control; T/C (dose: 12.5 micrograms/kg/injection, schedule: Q01DX009 (ip), vehicle: saline with Tween-80): 98 % of control and 121 % of control; T/C (dose: 25.0 micrograms/kg/injection, schedule: Q01DX009 (ip), vehicle: gum acacia): 108 % of control; T/C (dose: 25.0 micrograms/kg/injection, schedule: Q01DX009 (ip), vehicle: saline + alcohol): 110 % of control; T/C (dose: 25.0 micrograms/kg/injection, schedule: Q01DX009 (ip), vehicle: saline with Tween-80): 93 % of control; T/C (dose: 50.0 micrograms/kg/injection, schedule: Q01DX009 (ip), vehicle: gum acacia): 110 % of control; T/C (dose: 50.0 micrograms/kg/injection, schedule: Q01DX009 (ip), vehicle: saline + alcohol): 116 % of control; T/C (dose: 100.0 micrograms/kg/injection, schedule: Q01DX009 (ip), vehicle: gum acacia): 105 % of control; T/C (dose: 100.0 micrograms/kg/injection, schedule: Q01DX009 (ip), vehicle: saline + alcohol): 110 % of control; T/C (dose: 100.0 micrograms/kg/injection, schedule: Q01DX009 (ip), vehicle: saline with Tween-80): 104 % of control; T/C (dose: 200.0 micrograms/kg/injection, schedule: Q01DX009 (ip), vehicle: gum acacia): 110 % of control; T/C (dose: 200.0 micrograms/kg/injection, schedule: Q01DX009 (ip), vehicle: saline + alcohol): 150 % of control; T/C (dose: 200.0 micrograms/kg/injection, schedule: Q01DX009 (ip), vehicle: saline with Tween-80): 107 % of control and 116 % of control; T/C (dose: 400.0 micrograms/kg/injection, schedule: Q01DX009 (ip), vehicle: saline + alcohol): 116 % of control; T/C (dose: 800.0 micrograms/kg/injection, schedule: Q01DX009 (ip), vehicle: gum acacia): 96 % of control; T/C (dose: 800.0 micrograms/kg/injection, schedule: Q01DX009 (ip), vehicle: saline + alcohol): 96 % of control; T/C (dose: 800.0 micrograms/kg/injection, schedule: Q01DX009 (ip), vehicle: saline with Tween-80): 98 % of control and 110 % of control

Question: What does the source list for `COc1cccc(CCC(=O)O)c1OC`?
Answer: T/C (dose: 25.0 mg/kg/injection, schedule: Q04DX003 (ip), vehicle: water): 109 % of control; T/C (dose: 50.0 mg/kg/injection, schedule: Q04DX003 (ip), vehicle: water): 101 % of control; T/C (dose: 100.0 mg/kg/injection, schedule: Q04DX003 (ip), vehicle: water): 111 % of control; T/C (dose: 200.0 mg/kg/injection, schedule: Q04DX003 (ip), vehicle: water): 103 % of control; T/C (dose: 400.0 mg/kg/injection, schedule: Q04DX003 (ip), vehicle: water): 94 % of control
